# Where two headings read alike, the source gives them in different places.
# Experiments:
# [1] = test system: HIV-1 strain RoJo; assay: PBMC time of addition assay (RT activity in supernatant at 6 days); format: cell-based; details: for IC50: read-out: IC50
# Text: (§1) Human peripheral blood mononuclear cells (PBMCs) from a minimum of 2 donors, that have been blasted with PHA and IL-2, were counted, viability determined by Trypan Blue dye exclusion and mixed in equal ratios. Pooled donors were used to minimize the variability observed between individual donors which results from quantitative and qualitative differences in HIV infection and overall response to the PHA and IL-2 of primary lymphocyte populations. The cells were resuspended at 1×10^6 cells /mL in RPMI 1640 without phenol red supplemented with 15% Fetal Bovine Serum (heat inactivated), 2 mM L-glutamine, 100 U/mL penicillin, 100 μg/mL streptomycin, 10 μg/mL gentamycin and IL-2 (20 U/mL, R&D Systems, Minneapolis, Minn.). Fifty microliters of cells were then distributed to the inner 60 wells of a 96 well round bottom microtiter culture plate in a standard format developed by the Infectious Disease Research department of Southern Research Institute. Each plate contains cell control wells (cells only), virus control wells (cells plus virus), and experimental wells (drug plus cells plus virus). Alternatively, cells were cultured in T25 cm^2 or T75 cm^2 tissue culture flasks at a starting density of 1×10^6 cells per ml. Serially diluted compounds were added to the microtiter plate or tissue culture flask followed by the appropriate pre-titered strain of HIV-1. For virus replication inhibition experiments the HIV-1 strain RoJo was used. This is a low passage presumable subtype B pediatric isolate with a syncytium inducing (SI) phenotype in MT-2 cells isolated by Southern Research Institute personnel. All samples were assayed in triplicate where possible with an accompanying determination of compound toxicity. The final volume per well in the microtiter plates was 200 μL. The final volume in the tissue culture flask varied depending upon experimental design and flask size. Assays were incubated for 6 days in a humidified atmosphere at 37° C., 5% CO^2, after which supernatants were collected, for analysis of RT activity and cell viability by MTS dye reduction. Culture were also examined microscopically, any abnormalities noted, and in the case of tissue culture flasks cell counts and viability determined by Trypan Blue Dye exclusion.
# (§2) Time of addition assays were performed with PBMCs in two ways. For both assays, PBMCs were isolated and cultured under the conditions as described above. Time of addition assays were carried out in either a tissue culture flask format (T-75 cm^2) or in microtiter wells. In both cases due to the lack of plastic adherence and heterogeneity of the PBMC population for susceptibility to infection, it was not possible to use complete removal of virus following a timed adsorption to synchronize the infection and limit the assay to a single round of infection. Therefore, serial washing by partial removal of the media was used to reduce the concentration of virus and compound (if required) in the assay. Compound addition in relationship to antiviral activity was either assessed over a short addition interval immediately before or after virus addition or for up to 72 h post infection. For all assays virus replication was assessed at 6 days of culture by determining RT expression in cell-free supernatants. In the tissue culture flask format cells were counted and Trypan Blue Dye exclusion used to monitor compound cytotoxicity. Cell viability in the 96 well microtiter plate format was determined by MTS dye reduction. AZT was used as a positive control.
# Reverse transcriptase activity was measured in cell-free supernatants. Tritiated thymidine triphosphate (NEN) (TTP) was resuspended in distilled H2O at 5 Ci/mL. Poly rA and oligo dT were prepared as a stock solution which was kept at −20° C. The RT reaction buffer was prepared fresh on a daily basis and consists of 125 μL 1.0 M EGTA, 125 μL dH2O, 110 μL 10% SDS, 50 μL 1.0 M Tris (pH 7.4), 50 μL 1.0 M DTT, and 40 μL 1.0 M MgCl2. […]
# [2] = test system: peripheral blood mononuclear cells (PBMCs); assay: PBMC cell viability in time of addition assay (MTS / Trypan Blue); format: cell-based, Human; details: read-out: TC50 (the source's name)
# Text: as §1, §2
# At assay termination the assay plates were stained with the soluble tetrazolium-based dye MTS (CellTiter96® Reagent Promega) to determine cell viability and quantify compound toxicity. MTS is metabolized by the mitochondria enzymes of metabolically active cells to a soluble formazan product, allowing the rapid quantitative analysis cell viability and compound cytotoxicity. […] At termination of the assay 20 μL of MTS reagent was added per well and incubated for 4 h at 37° C. […]
# [3] = test system: IIIB strain of HIV-1; assay: Virus attachment assay, HeLa CD4 LTR β-gal cells (Experimental Example 2); format: cell-based; details: virus adsorption interval 1 to 2 h
# Method: This assay detects compounds that block virus attachment using HeLa CD4 LTR β-gal cells. HeLa CD4 LTR β-gal cells were cultured with selection antibiotics. Twenty-four h prior to initiation of the assay, the cells were trypsinized, counted and plated in a 0.2 cm well in media without selection antibiotics. At 24 h media is removed and compound in media placed on the cells and incubated for 15 min at 37° C. A known titer of the IIIB strain of HIV-1 was then added to the wells and the incubation continued for 1 to 2 h. At the end of the incubation the wells were washed 2 times with media and the culture continued for 40 to 48 h. At termination of the assay, media is removed and β-galactosidase enzyme expression determined by chemiluminescence per manufacturer's instructions (Tropix Gal-screen, Bedford Mass.). Compound toxicity is monitored on a sister plate by XTT or MTS dye reduction. All determinations are performed in triplicate with serial_Log10 dilution of the test materials.
# [4] = test system: HIV-1 (96USHIPS7 strain); assay: HIV attachment assay in PBMCs (cell-associated p24); format: cell-based; details: time 0 h
# Method: ELISA kits were purchased from Coulter Electronics. The assay was performed according to the manufacturer's instructions. Control curves were generated in each assay to accurately quantitate the amount of p24 antigen in each sample. For experiments using cell lysates. Fifty thousand (5×10^4) viable cells were lysed in Coulter ELISA buffer and subjected to 1 round of freeze/thawed to liberate trapped p24 and p24 detected per manufacturers instructions. HIV capsid protein (p24) was quantitated spectrophotometrically at 450 nm using a Molecular Devices Vmax plate reader using a standard curve. Final concentrations were calculated from the optical density values using the Molecular Devices Soft Max software package.
# The attachment assay with PBMCs was performed as follows. Briefly, 1×10^6 PHA/IL-2 PBMCs were incubated for 0, 2, 4 and 24 hours with IMG compounds and cannabidiol in polypropylene tubes. A pre-titered amount of HIV-1 (96USHIPS7 strain, obtained from the AIDS Research and Reference Reagent Program ) was added in the presence of compound and incubated for 3 h at 37° C. After incubation the cultures were washed 3 times (400×g, 10 min, 4° C.) with media (1:25,000 dilution of input p24), the cell pellets lysed with p24 lysing buffer (Coulter) and p24 content determined by ELISA.
# PBMCs pretreated with compounds for 0, 2, 4, and 24 were incubated with cell-free HIV-1 for 3 h and the excess unbound HIV removed. The assessed the amount of HIV bound to the cell was then assessed by measuring cell-associated p24 content of total cell lysates.
molecule,measurement,setting,value
"Cc1cn([C@H]2C[C@H](N=[N+]=[N-])[C@@H](CO)O2)c(=O)[nH]c1=O [AZT, reference compound]",enhancement of activity,[1]; 4 h preincubation,4.6 fold
same,IC50,"[1]; addition prior to infection, pre-treatment 0 h",1 nM
same,IC50,"[1]; addition prior to infection, pre-treatment 2 h",1 nM
same,IC50,"[1]; addition prior to infection, pre-treatment 4 h",1 nM
same,IC50,"[1]; addition prior to infection, pre-treatment 24 h",3 nM
same,IC50,[1]; treatment 6 h post,4.6 nM
same,IC50,[1]; treatment at infection,3.7 nM
same,IC50,[1]; treatment −4 h pre,0.8 nM
same,CC50,[2]; treatment 6 h post,> 4 µM
same,CC50,[2]; treatment at infection,> 4 µM
same,CC50,[2]; treatment −4 h pre,> 4 µM
same,activity in virus attachment assay,[3],not active
"Cc1ccnc2c1NC(=O)c1cccnc1N2C1CC1 [Nevirapine, reference compound]",% Control,[4]; 10 μM,81.2%
same,pg p24,[4]; 10 μM,311.7 pg
same,suppression of virus attachment,[4]; 10 μM,19% suppression
same,suppression of virus attachment,"[4]; 10 μM, listed as nevaripine",19%
Dextran Sulfate [reference compound],% Control,[4]; 20 μg/ml,57.6%
same,pg p24,[4]; 20 μg/ml,221 pg
same,suppression of virus attachment,[4]; 20 μg/ml,43.4% suppression
same,suppression of virus attachment,"[4]; 20 μg/ml, listed as dextran sulfate",43.4%
